# Laboratory results as given in article PMC3424241, “The Octadecaneuropeptide ODN Protects Astrocytes against Hydrogen Peroxide-Induced Apoptosis via a PKA/MAPK-Dependent Mechanism” (PLoS ONE, 2012).
# How the values were obtained:
# caspase-3 = experiment: Caspase-3 activity, fluorometric Z-DEVD-Rhodamine 110; assay type: cell-based, rat; details: for effect of inhibitor on the inhibitory action of ODN on H2O2-induced caspase-3 activity: H89 20 µM, U0126 20 µM, U73122 1 µM, chelerythrine 1 µM, 30 min pre-incubation, 1 h 300 µM H2O2 with ODN 0.1 nM
# Procedure: (§1) Secondary cultures of rat cortical astrocytes were prepared as previously described [64]with minor modifications. Briefly, cerebral hemispheres from newborn Wistar rats were collected in DMEM/F12 (2∶1; v/v) culture medium supplemented with 2 mM L-glutamine, 1‰ insulin, 5 mM HEPES, 0.4% glucose and 1% of the antibiotic-antimycotic solution. The tissues were dissociated mechanically with a syringe equipped with a 1-mm gauge needle, and filtered through a 100-µm sieve (Falcon, Franklin Lakes, NJ, USA). Dissociated cells were resuspended in culture medium supplemented with 10% FBS, plated in 175-cm^2 flasks (Greiner Bio-one GmbH, Frickenhausen, Germany) and incubated at 37°C in a 5% CO2/95% O2 atmosphere. When cultures were confluent, astrocytes were isolated by shaking overnight the flasks on an orbital agitator. Adhesive cells were detached by trypsination and preplated for 5 min to discard contaminating microglial cells. Then, the non-adhering astrocytes were harvested and plated on 35-mm hydrophilic surface Petri dishes at a density of 3×10^5 cells/ml. For measurement of cell survival, caspase-3 activity and mitochondrial activity, cells were plated in hydrophilic surface 24-well plates at a density of 8×10^4 cells/ml. The cells were incubated at 37°C in a humid atmosphere (5% CO2). After 5 days (DIV5), more than 99% of the cells were labeled with antibodies against glial fibrillary acidic protein [65]. All experiments were performed on 5- to 7-day-old secondary cultures.
# At the end of the incubation with test substances, cultured astrocytes were washed twice with PBS at 37°C, resuspended in DMEM (100 µl) and treated with fluorometric caspase-3 Apo-1 assay system. In brief, 100 µl of the cell suspension was incubated with 100 µl of kit buffer and caspase substrate in 96-well plates. Caspase-3 activity was calculated from the slope of the fluorescence measured every 15 min for 3 h with excitation at 485 nm and emission at 530 nm, and expressed as a percentage of the control.
# cultured rat astrocytes = experiment: Cell survival after H2O2, FDA fluorescence; assay type: cell-based; details: for effect of pathway inhibitor on the protective action of ODN: H89 20 µM, U0126 20 µM, U73122 10 µM, chelerythrine 0.1 µM; for protective effect of receptor ligand on H2O2-induced cell death: 30 min pre-incubation with ligand (OP 0.1 nM, [Ala15]ODN 0.1 nM, clonazepam 10 nM), then 1 h 300 µM H2O2; for effect of inhibitor on dbcAMP-promoted astroglial cell survival: H89 20 µM or U0126 20 µM, 1 h 300 µM H2O2 with dbcAMP 1 mM
# Procedure: as §1, with “Dissociated cells were resuspended in culture medium supplemented with 10% FBS, plated in 175-cm^2 flasks (Greiner Bio-one GmbH, Frickenhausen, Germany) and incubated at 37°C in a 5% CO2/95% O2 atmosphere.” left out, “For measurement of cell survival, caspase-3 activity and mitochondrial activity, cells were plated in hydrophilic surface 24-well plates at a density of 8×10^4 cells/ml.” left out, “After 5 days (DIV5), more than 99% of the cells were labeled with antibodies against glial fibrillary acidic protein [65].” left out
# Cultured cells were incubated at 37°C with fresh serum-free culture medium in the absence or presence of H2O2 and/or ODN for 1 h. Cells were then incubated for 10 min at 37°C with 0.3 µg/ml calcein-AM (producing green fluorescence in living cells), rinsed twice with culture medium without probe and examined on an inverted microscope (Leica, Heidelberg, Germany) equipped with a double pass filter.
# For quantification of surviving astrocytes, cells were incubated for 8 min with 15 µg/ml FDA-AM, rinsed twice with phosphate-buffered saline (PBS) and lysed with a Tris/HCl solution containing 1% sodium dodecyl sulfate (SDS). Fluorescence was measured with excitation at 485 nm and emission at 538 nm, using a microplate reader (Bio-Tek FLx 800).
# ERK1 and ERK2 = experiment: ERK phosphorylation, Western blot; assay type: cell-based, rat; details: ODN 0.1 nM, 1 h; flumazenil 1 µM, cyclo1-8[DLeu5]OP 1 µM, H89 20 µM, U0126 20 µM
# Procedure: as §1
# Cultured cells were incubated at 37°C for 1 h with fresh serum-free medium in the absence or presence of test substances. Total proteins were extracted with lysis buffer containing 1% Triton X-100, 50 mM Tris/HCl and 10 mM EDTA. After centrifugation (20,000 g, 4°C, 15 min), the proteins contained in the supernatant were precipitated by addition of ice-cold 10% TCA. The extract was centrifuged (15,000 g, 4°C, 15 min) and washed three times with alcohol/ether. The pellet was denatured (100°C, 5 min) in 50 mM Tris/HCl (pH 7.5) containing 20% glycerol, 0.7 M 2-mercaptoethanol, 0.004% bromophenol blue and 3% SDS, and then migrated on a 10% SDS-polyacrylamide gel electrophoresis (PAGE). After separation, proteins were electrically transferred onto nitrocellulose membrane (Amersham, Les Ulis, France). […] Signal was quantified using an image analysis system (Biocom, Les Ulis, France).
# [1] = system: glutathione (GSH) in cultured astrocytes; experiment: Intracellular glutathione content, mBCl fluorescence; assay type: cell-based, rat; details: antagonist 1 µM, 30 min pre-incubation; ODN 0.1 nM, 1 h; flumazenil statement covers control and H2O2-treated cells
# Procedure: as §1
# Reduced GSH was measured by using the thiol-reactive probe mBCl. At the end of the treatment period, the culture medium was removed and the cells were incubated with the mBCl probe (40 µM) at 37°C for 30 min and then washed twice with PBS. Fluorescence intensity was measured with excitation at 360 nm and emission at 485 nm, using a microplate reader (Bio-Tek FLx 800).
# [2] = system: cAMP formation in astroglial cells (adenylyl cyclase); experiment: cAMP production, radioimmunoassay; assay type: cell-based, rat; details: antagonist 1 µM, 30 min pre-incubation with 0.1 mM IBMX; ODN 0.1 nM, 10 min
# Procedure: as §1, with “For measurement of cell survival, caspase-3 activity and mitochondrial activity, cells were plated in hydrophilic surface 24-well plates at a density of 8×10^4 cells/ml. The cells were incubated at 37°C in a humid atmosphere (5% CO2). After 5 days (DIV5), more than 99% of the cells were labeled with antibodies against glial fibrillary acidic protein [65]. All experiments were performed on 5- to 7-day-old secondary cultures.” left out
# Cultured cells were pre-incubated for 30 min in serum-free medium containing 0.1 mM IBMX to inhibit phosphodiesterases, and then incubated in the same solution, in the presence or absence of test substances. […] The concentration of cAMP was measured by using a cAMP RIA kit. […]
# [3] = 30 min pre-incubation, then 1 h 300 µM H2O2 with ODN 0.1 nM, FDA fluorescence
Compound,effect of inhibitor on the inhibitory action of ODN on H2O2-induced caspase-3 activity (caspase-3),effect of pathway inhibitor on the protective action of ODN (cultured rat astrocytes; [3]),effect of antagonist or inhibitor on ODN-induced ERK phosphorylation (ERK1 and ERK2),other results
COc1ccc2c(c[n+](C)c3c4cc5c(cc4ccc23)OCO5)c1OC [chelerythrine],neither U73122 nor chelerythrine could suppress the effect of ODN,did not modify the protective effect of ODN,–,–
CCOC(=O)c1ncn2c1CN(C)C(=O)c1cc(F)ccc1-2 [flumazenil],–,–,did not affect ODN-induced ERK phosphorylation,"effect of antagonist on ODN-stimulated GSH formation [1]: did not impair the effect of ODN on glutathione production neither in control nor in H2O2-treated cells; effect of antagonist on ODN-stimulated cAMP formation [2]: did not affect the increase of cAMP induced by ODN; effect of receptor antagonist on the glioprotective action of ODN (cultured rat astrocytes; antagonist 1 µM, 30 min pre-incubation, then 1 h 300 µM H2O2 with ODN 0.1 nM, FDA fluorescence): did not affect the protective effect of ODN"
"[Ala^15]ODN: inactive ODN analog (QATVGDVNTDRPGLADLK; Octadecaneuropeptide; UniProt P11030 34-51, looked up, variant L15A)",–,–,–,protective effect of receptor ligand on H2O2-induced cell death (cultured rat astrocytes; FDA fluorescence): devoid of protective activity
N#CC(=C(/N)Sc1ccccc1N)/C(C#N)=C(/N)Sc1ccccc1N [U0126],abrogated the inhibitory effect of ODN on H2O2-induced caspase-3 activity,totally abrogated the protective action of ODN,suppressed,effect of inhibitor on dbcAMP-promoted astroglial cell survival (cultured rat astrocytes; 30 min pre-incubation): suppressed
O=C1CN=C(c2ccccc2Cl)c2cc([N+](=O)[O-])ccc2N1 [clonazepam],–,–,–,protective effect of receptor ligand on H2O2-induced cell death (cultured rat astrocytes; FDA fluorescence): unable to block the effect of H2O2
COc1ccc2c(c1)CC[C@@H]1[C@@H]2CC[C@]2(C)[C@@H](NCCCCCCN3C(=O)C=CC3=O)CC[C@@H]12 [U73122],neither U73122 nor chelerythrine could suppress the effect of ODN,did not modify the protective effect of ODN,–,–
O=S(=O)(NCCNC/C=C/c1ccc(Br)cc1)c1cccc2cnccc12 [H89],abrogated the inhibitory effect of ODN on H2O2-induced caspase-3 activity,totally abrogated the protective action of ODN,suppressed,effect of inhibitor on dbcAMP-promoted astroglial cell survival (cultured rat astrocytes; 30 min pre-incubation): suppressed
"CCCC(=O)Nc1ncnc2c1ncn2[C@@H]1O[C@@H]2COP(=O)(O)O[C@H]2[C@H]1OC(=O)CCC [dbcAMP, N^6,2′-O-dibutyryladenosine 3′,5′ cyclic monophosphate]",–,–,–,"effect of cAMP analog on H2O2-evoked caspase-3 activation (caspase-3; dbcAMP 1 mM, 1 h 300 µM H2O2): mimicked the effect ODN on H2O2-evoked caspase-3 activation; protective effect of cAMP analog on H2O2-evoked cell death (cultured rat astrocytes; dbcAMP 1 mM, 1 h 300 µM H2O2, FDA fluorescence): mimicked the protective effect of ODN on H2O2-evoked cell death"
